According to ChEMBL document CHEMBL5465560, “Selectivity Literature for EUbOPEN Chemogenomic Library” (2024):

Legend:
[1] = biological target: T1, Interleukin-1 receptor-associated kinase 4 (Homo sapiens) (UniProt Q9NWZ3); experiment: Selectivity interaction (Kinase panel (Invitrogen)) EUB0000639a IRAK4; settings: at 200 nM
T1 sequence (whole entry): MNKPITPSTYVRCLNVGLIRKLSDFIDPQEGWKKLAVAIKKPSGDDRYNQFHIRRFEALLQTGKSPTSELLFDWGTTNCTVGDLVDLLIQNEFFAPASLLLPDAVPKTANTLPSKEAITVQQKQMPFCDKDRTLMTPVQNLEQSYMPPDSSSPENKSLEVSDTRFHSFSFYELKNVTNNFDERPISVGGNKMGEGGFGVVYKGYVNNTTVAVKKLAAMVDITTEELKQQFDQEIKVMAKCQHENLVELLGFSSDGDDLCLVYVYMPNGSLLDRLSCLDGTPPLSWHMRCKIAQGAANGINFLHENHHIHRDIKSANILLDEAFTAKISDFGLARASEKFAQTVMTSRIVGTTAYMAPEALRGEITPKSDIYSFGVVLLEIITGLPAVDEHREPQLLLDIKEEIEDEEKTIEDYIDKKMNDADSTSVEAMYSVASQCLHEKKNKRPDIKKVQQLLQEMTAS

[2] = biological target: Serine/threonine-protein kinase MARK2 (Homo sapiens) (UniProt Q7KZI7); experiment: Selectivity interaction (ActivX KiNativ screen (kinase selectivity in THP-1 cell lysates)) EUB0000639a MARK2; format: subcellular; settings: lysate, at 0.01 µM
Chain of Serine/threonine-protein kinase MARK2 (Homo sapiens) (Q7KZI7 whole entry): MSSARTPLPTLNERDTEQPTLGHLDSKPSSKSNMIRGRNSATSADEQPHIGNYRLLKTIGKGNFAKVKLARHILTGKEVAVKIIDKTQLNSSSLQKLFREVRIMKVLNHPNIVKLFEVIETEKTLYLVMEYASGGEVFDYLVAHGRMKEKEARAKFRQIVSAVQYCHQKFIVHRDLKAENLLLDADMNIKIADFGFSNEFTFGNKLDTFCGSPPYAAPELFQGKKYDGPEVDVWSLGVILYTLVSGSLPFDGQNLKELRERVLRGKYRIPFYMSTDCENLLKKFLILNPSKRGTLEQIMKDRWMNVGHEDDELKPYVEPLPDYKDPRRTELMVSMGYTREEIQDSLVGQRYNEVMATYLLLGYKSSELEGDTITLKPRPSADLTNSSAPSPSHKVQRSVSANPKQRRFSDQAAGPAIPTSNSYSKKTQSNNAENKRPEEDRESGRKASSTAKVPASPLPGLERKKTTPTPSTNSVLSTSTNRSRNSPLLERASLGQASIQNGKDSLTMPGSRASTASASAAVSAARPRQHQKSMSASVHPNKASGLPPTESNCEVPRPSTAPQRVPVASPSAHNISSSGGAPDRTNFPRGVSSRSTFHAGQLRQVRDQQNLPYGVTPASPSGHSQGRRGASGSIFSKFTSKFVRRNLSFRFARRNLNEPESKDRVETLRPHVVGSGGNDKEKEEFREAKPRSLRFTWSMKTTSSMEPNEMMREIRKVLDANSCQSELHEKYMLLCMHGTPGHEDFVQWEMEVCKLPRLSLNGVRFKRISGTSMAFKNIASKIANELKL

[3] = biological target: Cyclin-dependent kinase 9 (Homo sapiens, UniProt P50750); experiment: Selectivity interaction (KinomeScan (DiscoverX)) EUB0000045b CDK9
Chain of Cyclin-dependent kinase 9 (P50750 whole entry): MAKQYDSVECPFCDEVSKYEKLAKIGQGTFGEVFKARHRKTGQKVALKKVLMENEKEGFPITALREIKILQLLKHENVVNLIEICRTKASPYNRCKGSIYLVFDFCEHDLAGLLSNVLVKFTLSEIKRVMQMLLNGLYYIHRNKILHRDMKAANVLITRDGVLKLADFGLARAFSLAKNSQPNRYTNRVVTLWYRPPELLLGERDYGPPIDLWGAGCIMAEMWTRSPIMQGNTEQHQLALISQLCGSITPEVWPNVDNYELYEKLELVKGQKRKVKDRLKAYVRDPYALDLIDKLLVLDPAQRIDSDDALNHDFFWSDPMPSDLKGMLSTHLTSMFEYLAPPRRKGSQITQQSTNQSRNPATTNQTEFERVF

[4] = biological target: Serine/threonine-protein kinase PAK 3 (Homo sapiens) (UniProt O75914); experiment: Selectivity interaction (KinomeScan (DiscoverX)) EUB0000618a PAK3; settings: at 10 µM
Chain of Serine/threonine-protein kinase PAK 3 (Homo sapiens) (O75914 whole entry, looked up): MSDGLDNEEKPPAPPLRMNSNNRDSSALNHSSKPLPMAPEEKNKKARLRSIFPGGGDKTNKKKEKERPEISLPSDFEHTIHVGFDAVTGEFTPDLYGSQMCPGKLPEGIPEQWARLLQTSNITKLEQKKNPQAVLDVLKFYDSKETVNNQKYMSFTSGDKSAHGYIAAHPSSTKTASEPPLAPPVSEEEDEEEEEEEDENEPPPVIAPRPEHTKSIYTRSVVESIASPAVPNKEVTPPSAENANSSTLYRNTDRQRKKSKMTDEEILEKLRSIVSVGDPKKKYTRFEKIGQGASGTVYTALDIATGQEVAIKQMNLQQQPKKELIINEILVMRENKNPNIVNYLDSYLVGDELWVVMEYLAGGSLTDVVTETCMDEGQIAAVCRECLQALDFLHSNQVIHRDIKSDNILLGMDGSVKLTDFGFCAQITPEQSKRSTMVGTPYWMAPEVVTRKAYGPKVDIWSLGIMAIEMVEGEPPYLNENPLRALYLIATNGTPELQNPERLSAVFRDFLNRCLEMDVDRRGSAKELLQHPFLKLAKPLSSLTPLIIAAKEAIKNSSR

[5] = biological target: T2, Ephrin type-B receptor 2 (Homo sapiens) (UniProt P29323); settings: at 10 µM
T2 sequence (whole entry): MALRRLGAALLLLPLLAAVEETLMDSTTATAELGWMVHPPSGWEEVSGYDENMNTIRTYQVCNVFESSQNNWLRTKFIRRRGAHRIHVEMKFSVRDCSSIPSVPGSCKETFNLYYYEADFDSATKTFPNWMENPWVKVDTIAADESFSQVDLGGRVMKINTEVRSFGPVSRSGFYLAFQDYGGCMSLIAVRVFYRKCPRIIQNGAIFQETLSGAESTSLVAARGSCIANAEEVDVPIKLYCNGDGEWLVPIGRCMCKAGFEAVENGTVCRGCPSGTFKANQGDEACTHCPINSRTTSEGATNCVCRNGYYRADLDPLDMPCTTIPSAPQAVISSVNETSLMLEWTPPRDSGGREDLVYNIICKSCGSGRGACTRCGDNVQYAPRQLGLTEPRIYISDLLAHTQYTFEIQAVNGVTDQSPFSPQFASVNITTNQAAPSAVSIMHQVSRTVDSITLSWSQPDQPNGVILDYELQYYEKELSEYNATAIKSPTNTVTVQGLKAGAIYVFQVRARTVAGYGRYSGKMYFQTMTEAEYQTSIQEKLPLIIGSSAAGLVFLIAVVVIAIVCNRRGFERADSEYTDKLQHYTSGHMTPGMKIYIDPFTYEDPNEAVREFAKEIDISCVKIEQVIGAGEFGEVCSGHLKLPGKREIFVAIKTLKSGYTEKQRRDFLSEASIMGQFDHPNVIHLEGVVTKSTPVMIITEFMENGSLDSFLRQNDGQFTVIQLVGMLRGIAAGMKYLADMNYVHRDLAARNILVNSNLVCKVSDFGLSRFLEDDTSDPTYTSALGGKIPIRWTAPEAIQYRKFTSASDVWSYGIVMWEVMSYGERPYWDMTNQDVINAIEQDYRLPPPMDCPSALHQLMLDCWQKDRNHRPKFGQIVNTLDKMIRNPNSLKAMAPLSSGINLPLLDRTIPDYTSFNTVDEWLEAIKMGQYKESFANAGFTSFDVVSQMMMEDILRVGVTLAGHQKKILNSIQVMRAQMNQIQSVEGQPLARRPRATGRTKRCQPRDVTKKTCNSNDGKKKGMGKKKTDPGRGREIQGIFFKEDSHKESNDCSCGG

[6] = biological target: T3, MAP/microtubule affinity-regulating kinase 4 (Homo sapiens) (UniProt Q96L34); experiment: Selectivity interaction (KinomeScan (DiscoverX)) EUB0000695a MARK4; settings: at 100 nM
T3 sequence (whole entry): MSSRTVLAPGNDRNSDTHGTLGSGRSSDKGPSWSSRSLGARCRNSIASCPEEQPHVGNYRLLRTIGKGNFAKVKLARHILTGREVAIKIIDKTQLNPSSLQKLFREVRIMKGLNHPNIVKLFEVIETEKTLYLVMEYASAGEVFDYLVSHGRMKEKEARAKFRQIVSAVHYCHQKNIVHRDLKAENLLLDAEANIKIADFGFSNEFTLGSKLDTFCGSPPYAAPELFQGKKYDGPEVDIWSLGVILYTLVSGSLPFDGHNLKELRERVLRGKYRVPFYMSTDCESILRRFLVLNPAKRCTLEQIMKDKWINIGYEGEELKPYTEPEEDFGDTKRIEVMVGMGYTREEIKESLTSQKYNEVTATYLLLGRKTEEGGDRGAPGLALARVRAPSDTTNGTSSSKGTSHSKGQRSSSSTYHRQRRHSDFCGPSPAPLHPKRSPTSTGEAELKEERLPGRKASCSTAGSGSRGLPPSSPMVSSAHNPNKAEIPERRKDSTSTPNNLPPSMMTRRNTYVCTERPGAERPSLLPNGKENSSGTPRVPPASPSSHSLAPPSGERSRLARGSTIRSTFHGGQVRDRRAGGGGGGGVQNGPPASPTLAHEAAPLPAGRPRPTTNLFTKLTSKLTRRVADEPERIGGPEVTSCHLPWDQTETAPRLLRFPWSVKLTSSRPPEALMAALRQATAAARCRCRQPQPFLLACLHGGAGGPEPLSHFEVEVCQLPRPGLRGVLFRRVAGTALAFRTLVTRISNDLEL

[7] = biological target: Mitogen-activated protein kinase kinase kinase kinase 1 (Homo sapiens) (UniProt Q92918); experiment: Selectivity interaction (LanthaScreen Eu Kinase Binding Assay) EUB0001632a MAP4K1; settings: at 10 µM
Chain of Mitogen-activated protein kinase kinase kinase kinase 1 (Homo sapiens) (Q92918 whole entry, looked up): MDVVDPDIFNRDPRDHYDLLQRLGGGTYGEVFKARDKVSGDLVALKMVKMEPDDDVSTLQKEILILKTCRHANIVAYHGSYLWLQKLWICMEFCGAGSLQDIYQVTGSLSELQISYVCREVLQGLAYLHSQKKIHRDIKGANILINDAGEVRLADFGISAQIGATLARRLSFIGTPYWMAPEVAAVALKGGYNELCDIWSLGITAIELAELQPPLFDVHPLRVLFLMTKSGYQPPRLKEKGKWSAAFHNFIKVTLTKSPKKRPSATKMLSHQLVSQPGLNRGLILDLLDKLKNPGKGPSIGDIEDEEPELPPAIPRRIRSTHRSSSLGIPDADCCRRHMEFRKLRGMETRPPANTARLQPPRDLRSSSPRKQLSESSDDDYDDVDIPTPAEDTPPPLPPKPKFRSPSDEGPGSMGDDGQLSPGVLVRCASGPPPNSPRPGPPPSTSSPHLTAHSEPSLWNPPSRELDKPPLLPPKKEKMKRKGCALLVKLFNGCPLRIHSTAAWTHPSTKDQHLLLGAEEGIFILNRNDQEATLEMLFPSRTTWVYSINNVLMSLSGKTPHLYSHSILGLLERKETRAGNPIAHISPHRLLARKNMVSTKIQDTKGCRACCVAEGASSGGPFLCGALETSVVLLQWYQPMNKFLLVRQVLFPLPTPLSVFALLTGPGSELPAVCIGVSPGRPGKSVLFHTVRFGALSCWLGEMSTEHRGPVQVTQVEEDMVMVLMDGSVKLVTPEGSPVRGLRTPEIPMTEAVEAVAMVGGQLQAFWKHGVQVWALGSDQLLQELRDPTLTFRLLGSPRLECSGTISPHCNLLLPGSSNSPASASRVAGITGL

[8] = biological target: Vasopressin V1a receptor (Homo sapiens) (UniProt P37288); experiment: Selectivity interaction (Panel of non-epigenetic targets (kinases, GPCRs, ion channels, and transporters, Eurofins) ) EUB0000271b AVPR1A; settings: at 1 µM
Chain of Vasopressin V1a receptor (Homo sapiens) (P37288 whole entry, looked up): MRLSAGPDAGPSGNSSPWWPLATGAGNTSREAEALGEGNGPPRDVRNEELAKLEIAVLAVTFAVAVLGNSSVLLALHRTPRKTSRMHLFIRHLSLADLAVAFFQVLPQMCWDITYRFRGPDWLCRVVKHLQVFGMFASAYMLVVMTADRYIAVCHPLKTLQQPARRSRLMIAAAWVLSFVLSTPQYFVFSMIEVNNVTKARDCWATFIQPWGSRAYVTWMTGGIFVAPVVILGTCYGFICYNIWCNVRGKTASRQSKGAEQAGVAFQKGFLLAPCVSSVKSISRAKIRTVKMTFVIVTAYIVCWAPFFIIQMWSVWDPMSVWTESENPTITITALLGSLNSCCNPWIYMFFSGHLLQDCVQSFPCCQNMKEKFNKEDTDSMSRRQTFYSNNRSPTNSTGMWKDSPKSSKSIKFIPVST

SMILES: CC[C@@H]1[C@H](F)C(=O)N[C@@H]1COc1nccc2cc(C(N)=O)c(OC)cc12 [ZIMLOVISERTIB]
- % of inhibition [1]: 106%
- % of inhibition [2]: 12.7%

SMILES: C=CC(=O)Nc1cc(-n2c(=O)ccc3cnc4ccc(-c5ccc(NS(C)(=O)=O)cc5)cc4c32)ccc1C
- % of control ([3]; at 1 µM): 100%
- % of control ([3]; at 10 µM): 95%

SMILES: O[C@H]1CC[C@H](Nc2ncc3nc(Nc4c(F)cc(F)cc4F)n([C@H]4CCOC4)c3n2)CC1
- % of control [4]: 100%

SMILES: Cc1cc([C@@H](C)Nc2ccccc2C(=O)O)c2nc(N3CCOCC3)cc(=O)n2c1 [AZD-6482]
- % of control [5]: 100%

SMILES: Cc1cc(F)c(C(=O)Nc2cccc(-c3nncn3C(C)C)n2)cc1-n1cnc(C2CC2)c1
- % of control [6]: 100%

SMILES: Cn1cc(-n2cnc3c(NCc4nc5cc(Cl)c(Cl)cc5[nH]4)nc(N4CCOCC4)nc32)cn1
- % of inhibition [7]: -18.9%

SMILES: Cc1cc(C)cc([C@@H]2c3cc(C)ccc3NC(=O)CN2C(=O)c2ccc(Br)s2)c1
- % of inhibition [8]: -5%
